Source: patent US9771334B2, “Triketone compound and preparation method and use thereof” (SHANDONG CYNDA CHEMICAL CO., LTD., priority 2013, dated 2017)

How the values were obtained:
Assay in all cases: Herbicidal activity, pot culture method (primary and secondary screening test)
Format in all cases: in vivo
Settings in all cases: primary screening, pot culture, 150 g/ha, sprayed at 3-leaf stage, result 15 days later
abutilon theophrasti = system: abutilon theophrasti
From the text: (§1) This test example is for describing the herbicidal activity inhibition ratio (%) (the dose is 150 g/ha) of the compound with a structure shown in Formula (I). Primary screening test (pot culture method): The test targets are abutilon theophrasti, digitaria sanguinalis, amaranthus retroflexus, echinochloa crusgalli, eclipta prostrata and setaria viridis. Take flowerpots with an inner diameter of 6 cm, put composite soil (vegetable garden soil:seedling matrix=1:2, v/v) into them till 3⁄4 of flowerpot height, directly sow the above six weed targets (budding rate>85%), cover them with 0.2 cm thick soil, and keep them for future use when the weeds grow to 3-leaf stage. Each compound is dissolved in N,N-dimethylformamide at a dose of 150 g/ha and diluted with distilled water into a 0.2 g/L solution. The solution is sprayed through an automatic spray tower. After the solution on weed leaves is aired dry, the flowerpots are moved into a greenhouse for cultivation. The result is investigated 15 days later. By the same method adopted in primary screening test, a secondary screening test is done on some typical compounds, such as: 5, 6, 20, 21, 23, 34, 47, 65, 66, 70 and 91 at a reduced dose, and the test result is compared with mesotrione which is commercially available and has a good herbicidal effect. The test method is same as that adopted in primary screening test. Mesotrione is bought from Hubei […] Chemical Co., Ltd.

echinochloa crusgalli = system: echinochloa crusgalli
From the text: as §1

eclipta prostrata = system: eclipta prostrata
From the text: as §1

setaria viridis = system: setaria viridis
From the text: as §1

amaranthus retroflexus = system: amaranthus retroflexus
From the text: as §1

digitaria sanguinalis = system: digitaria sanguinalis
From the text: as §1

Row | Compound | herbicidal activity inhibition ratio (%), Abutilon theophrasti (abutilon theophrasti) | herbicidal activity inhibition ratio (%), Echinochloa crusgalli (echinochloa crusgalli) | herbicidal activity inhibition ratio (%), Eclipta prostrata (eclipta prostrata) | herbicidal activity inhibition ratio (%), Setaria viridis (setaria viridis) | herbicidal activity inhibition ratio (%), Amaranthus retroflexus (amaranthus retroflexus) | herbicidal activity inhibition ratio (%), Digitaria sanguinalis (digitaria sanguinalis)
1 | Cc1ccccc1-n1c(=O)c2cc(C(=O)C3=C(O)CC(C)(C)CC3=O)ccc2n(Cc2ccccc2F)c1=O [Compound 85] | 0% | 20% | 0% | 10% | 20% | 0%
2 | Cc1ccc(Cl)cc1-n1c(=O)c2cc(C(=O)C3=C(O)CCCC3=O)ccc2n(C)c1=O [Compound 33] | 85% | 85% | 83% | 60% | 90% | 80%
3 | C#CCn1c(=O)n(-c2ccccc2C)c(=O)c2cc(C(=O)C3=C(O)CCCC3=O)ccc21 [Compound 77] | 90% | 50% | 35% | 20% | 90% | 0%
4 | Cn1c(=O)n(-c2ccccc2)c(=O)c2cc(C(=O)C3=C(O)CC(C)(C)CC3=O)ccc21 [Compound 40] | 100% | 78% | 80% | 45% | 95% | 85%
5 | Cc1cccc(C)c1-n1c(=O)c2cc(C(=O)C3=C(O)C(C)(C)CCC3=O)ccc2n(C)c1=O [Compound 54] | 100% | 95% | 80% | 45% | 98% | 60%
6 | Cc1cccc(C)c1-n1c(=O)c2c(C)c(C(=O)C3=C(O)CCCC3=O)ccc2n(C)c1=O [Compound 93] | 100% | 100% | 100% | 100% | 100% | 100%
7 | Cc1cccc(-n2c(=O)c3cc(C(=O)C4=C(O)CC(C)CC4=O)ccc3n(C)c2=O)c1 (stereo not drawn) [Compound 19] | 75% | 70% | 85% | 100% | 100% | 85%
8 | Cn1c(=O)n(-c2ccccc2Br)c(=O)c2cc(C(=O)C3=C(O)CC(C)(C)CC3=O)ccc21 [Compound 28] | 100% | 85% | 83% | 35% | 95% | 95%
9 | Cc1cccc(Cl)c1-n1c(=O)c2cc(C(=O)C3=C(O)CCCC3=O)ccc2n(C)c1=O [Compound 95] | 100% | 100% | 70% | 100% | 100% | 90%
10 | COc1ccc(-n2c(=O)c3cc(C(=O)C4=C(O)CCCC4=O)ccc3n(C)c2=O)cc1 [Compound 57] | 60% | 85% | 80% | 50% | 95% | 75%
11 | Cn1c(=O)n(-c2ccc(C(F)(F)F)cc2)c(=O)c2cc(C(=O)C3=C(O)CC(C)(C)CC3=O)ccc21 [Compound 31] | 60% | 40% | 55% | 10% | 80% | 60%
12 | COc1ccc(-n2c(=O)c3cc(C(=O)C4=C(O)CC(C)(C)CC4=O)ccc3n(C)c2=O)cc1 [Compound 58] | 100% | 80% | 68% | 60% | 90% | 88%
13 | CC1CC(=O)C(C(=O)c2ccc3c(c2)c(=O)n(-c2ccccc2)c(=O)n3C)=C(O)C1 (stereo not drawn) [Compound 42] | 98% | 88% | 83% | 60% | 100% | 93%
14 | Cn1c(=O)n(-c2cccc(Cl)c2)c(=O)c2cc(C(=O)C3=C(O)CC(C)(C)CC3=O)ccc21 [Compound 4] | 100% | 85% | 90% | 90% | 100% | 100%
15 | Cc1ccc(-n2c(=O)c3cc(C(=O)C4=C(O)CC(C)CC4=O)ccc3n(C)c2=O)cc1 (stereo not drawn) [Compound 16] | 70% | 85% | 75% | 100% | 70% | 100%
16 | Cn1c(=O)n(-c2ccccc2C(F)(F)F)c(=O)c2cc(C(=O)C3=C(O)CC(C)(C)CC3=O)ccc21 [Compound 41] | 100% | 73% | 80% | 25% | 95% | 85%
17 | CC(C)c1ccccc1-n1c(=O)c2cc(C(=O)C3=C(O)CCCC3=O)ccc2n(C)c1=O [Compound 97] | 98% | 55% | 90% | 50% | 100% | 50%
18 | CCCCn1c(=O)n(-c2ccccc2C)c(=O)c2cc(C(=O)C3=C(O)CC(C)(C)CC3=O)ccc21 [Compound 74] | 50% | 0% | 0% | 10% | 0% | 0%
19 | Cn1c(=O)n(-c2ccc(Br)cc2)c(=O)c2cc(C(=O)C3=C(O)CC(C)(C)CC3=O)ccc21 [Compound 26] | 100% | 85% | 88% | 30% | 100% | 93%
20 | Cn1c(=O)n(-c2cccc(F)c2)c(=O)c2cc(C(=O)C3=C(O)CC(C)(C)CC3=O)ccc21 [Compound 11] | 85% | 85% | 85% | 80% | 85% | 95%
21 | Cc1ccccc1-n1c(=O)c2cc(C(=O)C3=C(O)CCCC3=O)ccc2n(C)c1=S [Compound 86] | 20% | 85% | 30% | 10% | 0% | 30%
